ChEMBL document CHEMBL5036303, “Cyclic Analogues of the Chemerin C-Terminus Mimic a Loop Conformation Essential for Activating the Chemokine-like Receptor 1” (J Med Chem, 2021)
One block for each molecule: values may come before it. Where a SMILES comes first, the peptide text is derived from it.

Columns and labels:
[1] = target: T1, Chemerin-like receptor 1 (Homo sapiens, UniProt Q99788); assay: Agonist activity at wild type CMKL1 (unknown origin) expressed in COS-7 cells assessed as increase in calcium flux measured for 40 sec by Fluo-2 AM dye based assay; assay type: functional, cell-based
T1 sequence (Q99788 whole entry): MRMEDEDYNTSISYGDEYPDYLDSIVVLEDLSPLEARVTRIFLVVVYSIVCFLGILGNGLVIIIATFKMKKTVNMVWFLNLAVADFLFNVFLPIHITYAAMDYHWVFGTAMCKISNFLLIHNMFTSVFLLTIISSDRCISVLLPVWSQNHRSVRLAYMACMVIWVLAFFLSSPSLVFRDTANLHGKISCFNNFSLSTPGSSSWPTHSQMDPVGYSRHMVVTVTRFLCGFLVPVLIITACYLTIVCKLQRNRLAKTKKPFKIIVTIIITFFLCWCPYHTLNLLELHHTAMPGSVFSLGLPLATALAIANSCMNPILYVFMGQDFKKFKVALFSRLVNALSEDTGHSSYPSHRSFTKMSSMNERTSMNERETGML

[2] = Agonist activity at CMKL1 Y268L mutant (unknown origin) expressed in COS-7 cells assessed as increase in calcium flux measured for 40 sec by Fluo-2 AM dye based assay; assay type: cell-based
[3] = target: T1, Chemerin-like receptor 1; assay: Agonist activity at Wild type CMKL1 (unknown origin) expressed in COS-7 cells assessed as accumulation of inositol phosphate incubated for 3 hrs by liquid scintillation counting method; assay type: functional, cell-based
[4] = Agonist activity at CMKL1 F476A mutant (unknown origin) expressed in COS-7 cells assessed as accumulation of inositol phosphate incubated for 3 hrs by liquid scintillation counting method; assay type: cell-based; settings: COS-7, 3 h
[5] = Agonist activity at CMKL1 Y263A mutant (unknown origin) expressed in COS-7 cells assessed as increase in calcium flux measured for 40 sec by Fluo-2 AM dye based assay; assay type: cell-based
[6] = Agonist activity at CMKL1 Y268A mutant (unknown origin) expressed in COS-7 cells assessed as increase in calcium flux measured for 40 sec by Fluo-2 AM dye based assay; assay type: cell-based
[7] = Agonist activity at CMKL1 E658A mutant (unknown origin) expressed in COS-7 cells assessed as increase in calcium flux measured for 40 sec by Fluo-2 AM dye based assay; assay type: cell-based
[8] = Agonist activity at CMKL1 F479A mutant (unknown origin) expressed in COS-7 cells assessed as accumulation of inositol phosphate incubated for 3 hrs by liquid scintillation counting method; assay type: cell-based; settings: COS-7, 3 h
[9] = Agonist activity at CMKL1 F476A mutant (unknown origin) expressed in COS-7 cells assessed as increase in calcium flux measured for 40 sec by Fluo-2 AM dye based assay; assay type: cell-based
[10] = Agonist activity at CMKL1 F479A mutant (unknown origin) expressed in COS-7 cells assessed as increase in calcium flux measured for 40 sec by Fluo-2 AM dye based assay; assay type: cell-based
[11] = Agonist activity at CMKL1 E658A mutant (unknown origin) expressed in COS-7 cells assessed as accumulation of inositol phosphate incubated for 3 hrs by liquid scintillation counting method; assay type: cell-based; settings: COS-7, 3 h

SMILES: CC(C)C[C@H](NC(=O)[C@H](CCC(N)=O)NC(=O)CNC(=O)[C@@H]1CCCN1C(=O)[C@H](Cc1ccccc1)NC(=O)[C@@H](N)Cc1ccc(O)cc1)C(=O)N[C@@H](C)C(=O)N[C@@H](Cc1ccccc1)C(=O)N[C@@H](CO)C(=O)O
EC50 [1]: 195 nM
EC50 ([2]; read-out: EC50): > 1000 nM
EC50 ([2]; read-out: pEC50 (converted)): > 1000 nM

SMILES: C[C@H](NC(=O)[C@H](Cc1ccccc1)NC(=O)[C@H](CCC(N)=O)NC(=O)CNC(=O)[C@@H]1CCCN1C(=O)[C@H](Cc1ccccc1)NC(=O)[C@@H](N)Cc1ccc(O)cc1)C(=O)NCc1ccccc1
EC50 [1]: 32 nM

SMILES: C[C@H](NC(=O)[C@H](Cc1ccccc1)NC(=O)[C@H](CCC(N)=O)NC(=O)CNC(=O)[C@@H]1CCCN1C(=O)[C@H](Cc1ccccc1)NC(=O)[C@@H](N)Cc1ccc(O)cc1)C(=O)N[C@@H](Cc1ccccc1)C(=O)O (H-YFPGQFAF-OH)
EC50 [1]: 20 nM

EC50 [1]: 64 nM
EC50 [3]: 150 nM
SMILES: C[C@@H]1NC(=O)[C@H](Cc2ccccc2)NC(=O)[C@H](CCC(N)=O)NC(=O)[C@@H](NC(=O)[C@@H]2CCCN2C(=O)[C@H](Cc2ccccc2)NC(=O)[C@@H](N)Cc2ccc(O)cc2)CSSC[C@@H](C(=O)O)NC(=O)[C@H](Cc2ccccc2)NC1=O (HELM PEPTIDE1{Y.F.P.C.Q.F.A.F.C}$PEPTIDE1,PEPTIDE1,4:R3-9:R3$$$V2.0)

EC50 [4]: 3890 nM
EC50 ([5]; read-out: EC50): 197 nM
EC50 ([5]; read-out: pEC50 (converted)): 200 nM
EC50 ([6]; read-out: EC50): > 1000 nM
EC50 ([6]; read-out: pEC50 (converted)): > 1000 nM
EC50 ([7]; read-out: EC50): > 1000 nM
EC50 ([7]; read-out: pEC50 (converted)): > 1000 nM
EC50 [8]: > 10000 nM
EC50 ([9]; read-out: EC50): 85 nM
EC50 ([9]; read-out: pEC50 (converted)): 85.1 nM
EC50 ([10]; read-out: EC50): > 1000 nM
EC50 ([10]; read-out: pEC50 (converted)): > 1000 nM
EC50 ([11]; read-out: EC50): > 10000 nM
EC50 ([11]; read-out: pEC50 (converted)): > 10000 nM
SMILES: C[C@@H]1NC(=O)[C@H](Cc2ccccc2)NC(=O)[C@H](CCC(N)=O)NC(=O)[C@H](NC(=O)[C@@H]2CCCN2C(=O)[C@H](Cc2ccccc2)NC(=O)[C@@H](N)Cc2ccc(O)cc2)CCSSC[C@@H](C(=O)O)NC(=O)[C@H](Cc2ccccc2)NC1=O (HELM PEPTIDE1{Y.F.P.[O=C([C@@H](CCS[*:3])N[*:1])[*:2]].Q.F.A.F.C}$PEPTIDE1,PEPTIDE1,4:R3-9:R3$$$V2.0)
